Marks after values point to notes of the source that are not given here.
Columns and labels:
[1] = system: PCP-induced inhibition of the acoustic prestimulus (PPI); assay: Reversion of PCP-induced inhibition of the acoustic prestimulus (PPI) in the rat; format: in vivo
Text: The first model used was the study of PCP-induced inhibition of the acoustic prestimulus (PPI) in the rat.
This phenomenon is known as “pre-pulse inhibition” (PPI). […] Such a deficit may be reproduced experimentally with drugs which induce psychotic phenomena, such dopamine agonists and NMDA antagonists.
The method is based on that reported by Swerdlow et al. [J. Pharmacol. Exp. Ther. 256 530-536 (1991)] with slight modifications. An acrylic cylinder is used which is equipped with a piezoelectric sensor mounted under the cylinder which detects and transduces movements of the cylinder. A background noise of 60 dB is provided and subsequently two acoustic stimuli separated by 500 ms, the first of which is 20 dB above the background noise, while the second (startle stimulus) is 120 dB for a duration of 40 ms. The session of 30 trials at 30 second intervals with an overall duration of approx. 15 minutes involved subjecting the animal randomly to a startle stimulus either isolated or preceded by the low intensity stimulus. PPI was calculated as a percentage reduction in the level of startle in the presence of the prestimulus compared to that without the acoustic prestimulus. Rats weighing approx. 250 g were used, which were treated intraperitoneally (i.p.) with the products under investigation 15 minutes prior to subcutaneous (s.c.) administration of 3 mg/kg of PCP and 30 minutes before the beginning of the experiment.

[2] = system: hippocampal ischaemia by bilateral occlusion of the carotid arteries; assay: Ischaemia induced in the gerbil by bilateral occlusion of the carotid arteries (hippocampal neuroprotection); format: in vivo; conditions: for area (mm2): mean ± SD; for % mortality: ischaemia group 28.57
Experimental: It was accordingly decided to investigate the possible neuroprotective effects of neboglamine and CR 2863 on a model of hippocampal ischaemia brought about in the gerbil by bilateral occlusion of the carotid arteries.
In brief, halothane-anaesthetised animals are subjected to bilateral occlusion of the carotid arteries for 5 minutes. After 7 days, the animals are sacrificed, the brain is removed, deep frozen and 10 μm sections from the hippocampal area are prepared which are stained with cresyl violet. A quantitative determination (in mm^2) of the area occupied by […] pyramidal neurons is then performed by means of an image analyser. The type of hippocampal neurodegeneration arising from this model of ischaemia involves a significant reduction in the area of the neuronal nuclei. The drugs were administered intraperitoneally (i.p.) 1 h before the ischaemia.

[3] = system: NMDA-evoked 3H-dopamine release in slices of rat prefrontal cortex; assay: PCP-induced blocking of NMDA-evoked 3H-dopamine release in slices of rat frontal cortex; format: cell-based
Experimental: Neboglamine's ability to reverse the effect of PCP at a neuronal level was also evaluated in an in vitro test carried out on slices of rat frontal cortex.
The method involved preparing 0.4 mm thick cortical slices, incubating them for 20 minutes with ^3H-dopamine in physiological solution in the presence of 0.1 μM 6-nitroquipazine and 0.1 μM nisoxetine (selective serotonin and noradrenaline reuptake inhibitors), aerated with 95% O2+5% CO2 at 37° C., which, after appropriate washing with artificial cerebrospinal fluid (aCSF), were superperfused for 30 minutes with aCFS at a rate of 1 ml/minute to equilibrate the system. Then, PCP and neboglamine were added at the stated concentrations to the perfusion liquid for the entire duration of the experiment, while, after 45 minutes, NMDA (100 μM) stimulation was provided for 5 minutes. Another four 5 minute fractions of eluate were then collected and their radioactivity determined.
The effect of the drugs was evaluated by calculating the ratio between the percentage radioactivity present in the effluent fraction corresponding to the maximum effect and that in the first effluent fraction collected.

[4] = system: PCP-induced depression (swimming test); assay: Reversion of PCP-induced depression in the mouse swimming test; format: in vivo
Text: An animal model of depression (which may be considered as a negative symptom of schizophrenia) was then used to study the activity of neboglamine on the PCP-induced depressive effects in the mouse using the swimming test according to Porsolt et al. [Arch. Int. Pharmadyn. 229, 327-336 (1977)].
The test involves inducing a state of depression in the animal, which is forced to swim in a glass cylinder from which it cannot escape. The state of depression was accentuated by 14 days' pre-treatment with a daily 10 mg/kg (s.c.) injection of PCP. On the 15th day, the animals were additionally pretreated (i.p.) with physiological solution or neboglamine 30 minutes before the beginning of the test. The duration of immobility (sign of depression) in seconds was evaluated during the experiment of an overall duration of 360 seconds. The results obtained in this manner, calculated between the 3rd and 6th minute of the experiment, i.e. for a period of […], are shown in Table 2.

For `CC1(C)CCC(N)CC1` [CR 2863, 4,4-dimethylcyclohexylamine], the “times less active than the parent (neboglamine)” value ([1]; rat PPI model) was “approx. 3 times”, the “PPI (% inhibition)” value ([1]; rat, drug 10 mg/kg i.p. 15 min before PCP 3 mg/kg s.c., n=10) was 38* % and the “% inhibition by PCP” value ([1]; rat, drug 10 mg/kg i.p. + PCP, calculated by formula) was 51.4%. For the same molecule, the “% protection” value ([2]; 4 mg/kg i.p.) was 24.88%, the “area (mm2)” value ([2]; 4 mg/kg i.p. 1 h before ischaemia, sham 22.39, ischaemia 5.55) was 9.74 ± 0.9*^+ mm2 and the “% mortality” value ([2]; 4 mg/kg i.p.) was 11.11%. The “% protection” value ([2]; 8 mg/kg i.p.) was 39.25%, the “area (mm2)” value ([2]; 8 mg/kg i.p. 1 h before ischaemia) was 12.16 ± 5.49 mm2 and the “% mortality” value ([2]; 8 mg/kg i.p.) was 5.88%. For the same molecule, the “% protection” value ([2]; 16 mg/kg i.p.) was 57.82% and the “area (mm2)” value ([2]; 16 mg/kg i.p. 1 h before ischaemia) was 15.23 ± 5.49*^+ mm2.
`CN[C@H](CC(=O)O)C(=O)O` [NMDA] was tested, and the “% increase in NMDA-evoked 3H-dopamine release” value ([3]; Control: NMDA 100 μM alone) was 120%.
`c1ccc(C2(N3CCCCC3)CCCCC2)cc1` [PCP, Phenylcyclidine] was tested, and the “% increase in NMDA-evoked 3H-dopamine release” value ([3]; NMDA 100 μM + PCP 0.1 μM) was 64%, the “PPI (% inhibition)” value ([1]; rat, PCP only group, 3 mg/kg s.c., control 55%) was 20% and the “increase of duration of immobility relative to untreated control group” value ([4]; 2 weeks' chronic PCP) was “approx. 3 times”. For the same molecule, the Immobility ([4]; PCP only group, 14 days 10 mg/kg s.c. daily, control 48) was 130 s.
